Assay results taken from patent US10919949B2, “Acylated insulin analogues and uses thereof” (Novo Nordisk A/S, priority 2017, dated 2021).

Key:
[1] = test system: isolated rat adipocytes; assay: Lipogenesis in rat free fat cell assay; format: cell-based
Description: The metabolic potency of the insulin derivatives of the invention was determined by lipogenesis using isolated rat adipocytes.
In brief, epididymal fat pads were removed from killed Sprague-Dawley rats and placed in degradation buffer with collagenase (Worthington) in order to degrade the fat pads into a single-cell suspension. […] The incubation was stopped by addition of MicroScint-E (PerkinElmer), and the plates counted in a TopCount NXT (PerkinElmer).

[2] = test system: AKT and ERK; assay: Insulin receptor signalling via AKT and ERK phosphorylation in CHO-hIR cells (Western blot / Surefire); format: cell-based, Chinese hamster; details: 10 min stimulation, Table 1A
Description: Insulin receptor (IR) signalling of the analogues of this invention via AKT and ERK pathways was assessed either by traditional Western blotting technique or by the use of Surefire, alphascreen technique.
In brief, CHO-hIR cells were stimulated for 10 min with increasing concentrations of the insulin analogue, washed in ice-cold PBS, snap-frozen and lysed in lysis buffer (Biosource). Equal amounts of proteins were loaded on gels and blotted to nitrocellulose membranes. Phosphorylated AKT and ERK were visualised with Phospho-AKT (Ser473) (Cell signalling #9271) and pMAPK 44/42 ERK1/2 rabbit (Cell Signalling #4376) antibodies, respectively. Band intensities were evaluated using a LAS3000 (Fuji).
The responsiveness value (Span) for each analogue was calculated using non-linear regression in GraphPad Prism 7 from GraphPad Software Inc and expresses as percent of the responsiveness of insulin (% max AKT or % max ERK)

[3] = 0.1% HSA as printed, Table 1A second lipogenesis column
[4] = 0.1% HSA, Table 1A first lipogenesis column

Row | Substance | Lipogenesis 0.1% HSA EC50 (% of human insulin) [1, 3] | Lipogenesis 0.1% HSA EC50 (% of human insulin) [1, 4] | % maxERK/% maxAKT [2]
1 | N{Epsilon-B28}-[(4R)-4-[(3R,10S,13R,17R)-3-hydroxy-10,13-dimethyl-2,3,4,5,6,7,8,9,11,12,14,15,16,17-tetradecahydro-1H-cyclopenta[a]phenanthren-17-yl]pentanoyl]-[TyrB5,LysB28],des-(B29-B30)-Insulin [Example 9] | 0.49 % of human insulin | 0.40 % of human insulin | 0.29
2 | N{Epsilon-B28}-[(4S)-4-carboxy-4-[[(4R)-4-[(3R,10S,13R,17R)-3-hydroxy-10,13-dimethyl-2,3,4,5,6,7,8,9,11,12,14,15,16,17-tetradecahydro-1H-cyclopenta[a]phenanthren-17-yl]pentanoyl]amino]butanoyl]-[TyrB5,LysB28],des-(B29-B30)-Insulin [Example 8] | 0.72 % of human insulin | 1.76 % of human insulin | 0.32
